In brackets after ≈: the same amount, converted by molar mass. Like-named read-outs stand apart in the source and are kept apart here.
Key:
S. aureus DHFR = molecular target: T1, S. aureus DHFR (Staphylococcus aureus, UniProt P0A017); experiment: biochemical; assay type: biochemical
T1 construct: the DHFR gene was inserted into vector pET41 with a His8 tag for purification; His8; made in house; host or cells: E. coli BL21 (DE3)
Experimental: (§1) S. aureus DHFR was cloned, expressed and purified as previously described. Briefly, the DHFR gene was inserted into vector pET41 with a His8 tag for purification. The protein was expressed in E. coli BL21 (DE3) cells. […] The protein was concentrated to ∼5 mg/mL. S. pyogenes DHFR was cloned using PCR from genomic DNA and inserted in vector pET-41.
(§2) Enzyme inhibition assays were performed by monitoring the rate of NADPH oxidation by the DHFR enzyme at an absorbance of 340 nm over five minutes. Assays were performed in the presence of saturating concentrations of NADPH (100 µM) and initiated with dihydrofolate (1 mM). All assays were completed at 25°C in a buffer containing 20 mM TES pH 7.0, 50 mM KCl, 10 mM 2-mercaptoethanol, 0.5 mM EDTA and 1 mg/mL BSA. Inhibition was measured at least three times with inhibitor concentrations near the IC50 value and the average IC50 value is reported with a standard deviation.

S. pyogenes DHFR = S. pyogenes DHFR (Streptococcus pyogenes, UniProt Q9A091); experiment: biochemical; assay type: biochemical; conditions: for IC50: S. pyogenes DHFR, average of at least three measurements, read-out: IC50 (nM) Sp; for Selectivity (h/Sp): IC50 (human)/IC50 (pathogen)
Experimental: as §1, §2

MRSA (S.aureus 13709) = experiment: MIC, broth microdilution with Alamar Blue; assay type: cell-based, Staphylococcus aureus; conditions: for Selectivity MRSA: IC50 (MCF10)/MIC (pathogen), both values in µM
Experimental: (§3) Stock solutions of standard antibiotics and test compounds were made at 50 mM in DMSO. […] For susceptibility testing, 10 µL of glycerol stock was suspended in a 10 mL shake flask culture of chemically defined Isosensitest broth (Oxoid) supplemented with 2% w/v glucose. A sample of the shake flask culture was diluted to 1×10^6 cells/mL in media and added to 96-well test plates (100 µL per well) containing test compounds dispensed in DMSO (2 µL) using serial two-fold dilutions. After an incubation period (30°C) determined from the strain specific doubling time, a 0.03% w/v aqueous solution of resazurin (10 µL) was added and the plates were allowed to incubate; each well was then scored for dye reduction.

Streptococcus pyogenes = experiment: MIC, broth microdilution with Alamar Blue; assay type: cell-based; conditions: for Selectivity S. pyogenes: IC50 (MCF10)/MIC (pathogen), both values in µM
Experimental: as §3

MCF-10 cells = experiment: Mammalian cell toxicity (Alamar Blue); assay type: cell-based; conditions: read-out: IC50 MCF-10
Experimental: Adherent cell lines were maintained in Eagle's Minimal Essential Media (Sigma-Aldrich, St. Louis, MO, USA) with 2 mM glutamine and Earle's Balanced Salt Solution (HyClone, Logan, UT, USA) adjusted to contain 1.5 g/L sodium bicarbonate, 0.1 mM non-essential amino acids, 1 mM sodium pyruvate and 10% fetal calf serum. Fetal calf serum used in these assays was lot matched throughout. […] Toxicity assays were conducted between passages 10–20. Target compound toxicity was measured by incubating the test compound with the cells for 4 h, washing the cells and finally treating the cells with Alamar Blue. After 12–24 h, the fluorescence of the reduced dye was measured. Fluorescence intensity as a function of test compound concentration was fit to the Fermi equation, using non-linear least squares regression analysis, to estimate IC50 values.

Human DHFR = molecular target: T2, Human DHFR (Homo sapiens, UniProt P00374); experiment: DHFR enzyme inhibition assay (NADPH oxidation, 340 nm); assay type: biochemical
T2 sequence (P00374 1-187): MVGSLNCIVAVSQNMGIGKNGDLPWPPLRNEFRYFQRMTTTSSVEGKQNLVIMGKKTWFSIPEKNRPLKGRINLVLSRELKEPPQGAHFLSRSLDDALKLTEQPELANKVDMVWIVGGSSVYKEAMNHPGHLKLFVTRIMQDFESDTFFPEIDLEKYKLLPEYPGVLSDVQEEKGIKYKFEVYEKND
Experimental: as §2

HepG2 cells = experiment: Mammalian cell toxicity (Alamar Blue); assay type: cell-based; conditions: Homo sapiens, cytotoxicity, 4 h incubation
Experimental: Fetal calf serum used in these assays was lot matched throughout. All cultures were maintained under a humidified 5% CO2 atmosphere at 37°C, had media refreshed twice weekly and were subcultured by trypsinization and resuspension at a ratio of 1∶5 each week. Toxicity assays were conducted between passages 10–20. Target compound toxicity was measured by incubating the test compound with the cells for 4 h, washing the cells and finally treating the cells with Alamar Blue. After 12–24 h, the fluorescence of the reduced dye was measured. Fluorescence intensity as a function of test compound concentration was fit to the Fermi equation, using non-linear least squares regression analysis, to estimate IC50 values.

[1] = S. aureus DHFR, average of at least three measurements, read-out: IC50 (nM) Sa
[2] = value in parentheses, read-out: MIC MRSA
[3] = value in parentheses, read-out: MIC S. pyogenes
[4] = Staphylococcus aureus, MRSA, value in parentheses, read-out: MIC MRSA
[5] = Staphylococcus aureus, MRSA, read-out: MIC MRSA
[6] = Streptococcus pyogenes, value in parentheses, read-out: MIC S. pyogenes
[7] = Streptococcus pyogenes, read-out: MIC S. pyogenes
[8] = human DHFR, average of at least three measurements, read-out: IC50 (nM) Human
[9] = Homo sapiens, MCF10, cytotoxicity, 4 h incubation
[10] = 10% fetal calf serum, value in parentheses, read-out: MIC MRSA +FCS
[11] = 10% FCS, value in parentheses, read-out: MIC S. pyogenes +FCS
[12] = Staphylococcus aureus, MRSA, 10% fetal calf serum, read-out: MIC MRSA +FCS
[13] = Staphylococcus aureus, MRSA, 10% fetal calf serum, value in parentheses, read-out: MIC MRSA +FCS
[14] = Streptococcus pyogenes, 10% FCS, read-out: MIC S. pyogenes +FCS
[15] = Streptococcus pyogenes, 10% FCS, value in parentheses, read-out: MIC S. pyogenes +FCS

S. pyogenes DHFR, sequence (Q9A091 entry or part of it): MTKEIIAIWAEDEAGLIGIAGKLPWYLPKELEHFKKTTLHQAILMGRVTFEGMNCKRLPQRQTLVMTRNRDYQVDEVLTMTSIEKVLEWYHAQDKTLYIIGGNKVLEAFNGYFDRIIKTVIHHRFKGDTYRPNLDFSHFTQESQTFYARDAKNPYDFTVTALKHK
T1 sequence (P0A017 whole entry): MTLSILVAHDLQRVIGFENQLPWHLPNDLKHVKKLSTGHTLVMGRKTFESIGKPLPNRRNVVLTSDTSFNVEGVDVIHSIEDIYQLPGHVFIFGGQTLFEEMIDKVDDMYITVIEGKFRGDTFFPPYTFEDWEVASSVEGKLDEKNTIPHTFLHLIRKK

Row | SMILES | IC50 (S. aureus DHFR; [1]) [nM] | IC50 (S. pyogenes DHFR) [nM] | MIC MRSA (MRSA (S.aureus 13709)) [µg/mL] | MIC (MRSA (S.aureus 13709); [2]) [µM] | MIC S. pyogenes (Streptococcus pyogenes) [µg/mL] | MIC (Streptococcus pyogenes; [3]) [µM] | MIC (MRSA (S.aureus 13709); [4]) [µM] | MIC (MRSA (S.aureus 13709); [5]) [µg/mL] | MIC (Streptococcus pyogenes; [6]) [µM] | MIC (Streptococcus pyogenes; [7]) [µg/mL] | Selectivity (h/Sa) (S. aureus DHFR; IC50 (human)/IC50 (pathogen)) | Selectivity (h/Sp) (S. pyogenes DHFR) | IC50 (Human DHFR; [8]) [nM] | Selectivity MRSA (MRSA (S.aureus 13709)) | Selectivity S. pyogenes (Streptococcus pyogenes) | IC50 (MCF-10 cells; [9]) [nM] | MIC (MRSA (S.aureus 13709); [12]) [µg/mL] | MIC (MRSA (S.aureus 13709); [13]) [µM] | MIC (Streptococcus pyogenes; [14]) [µg/mL] | MIC (Streptococcus pyogenes; [15]) [µM] | also measured
1 | COc1cc(-c2ccc(C)cc2)cc(C(C)C#Cc2c(C)nc(N)nc2N)c1 (racemic) [Compound 2] | 410 ± 36 | 350 ± 44 | 0.71 (≈ 1.91 µM) | 2 | 0.024 (≈ 0.0644 µM) | 0.064 |  |  |  |  |  |  |  |  |  |  |  |  |  |  | IC50 (MCF-10 cells; cytotoxicity, 4 h incubation): 55000 nM
2 | COc1cc(-c2cc(C)cc(C)c2)cc(C(C)C#Cc2c(C)nc(N)nc2N)c1 (stereo not drawn) [Compound 1] |  |  | 5.76 (≈ 14.9 µM) |  | 0.097 (≈ 0.251 µM) |  | 16 | 5.8 | 0.25 | 0.1 |  |  |  |  |  |  |  |  |  |  | IC50 (MCF-10 cells; Homo sapiens, MCF10, 4 h): 47000 nM
3 | CCc1nc(N)nc(N)c1C#CCc1cc(-c2ccccc2)ccc1OC [Compound 7] | 2.4 ± 0.2 |  |  |  |  |  | 1 | 0.18 | 0.016 | 0.006 | 125 | 51 | 300 ± 10 | 67 | 4,187 | 67000 |  |  |  |  | fold improvement in potency against S. aureus DHFR (S. aureus DHFR; relative to compound 1): 18 fold
4 | CCc1nc(N)nc(N)c1C#CCc1cccc(-c2ccccc2)c1 [Compound 8] | 28 ± 1.7 | 26 ± 1.7 | 0.66 (≈ 2.01 µM) | 2 | 0.66 (≈ 2.01 µM) | 2 |  |  |  |  | 10 | 11 | 290 ± 36 |  |  |  |  |  |  |  | MIC MRSA +FCS (MRSA (S.aureus 13709); 10% fetal calf serum): 5.2 µg/mL (≈ 15.8 µM); MIC (MRSA (S.aureus 13709); [10]): 16 µM; MIC S. pyogenes +FCS (Streptococcus pyogenes; 10% FCS): 2.6 µg/mL (≈ 7.92 µM); MIC (Streptococcus pyogenes; [11]): 8 µM; IC50 (MCF-10 cells; cytotoxicity, 4 h incubation): 32000 nM
5 | CCc1nc(N)nc(N)c1C#CCc1cc(OC)cc(-c2ccccc2)c1 [Compound 9] | 59 ± 2.3 | 52 ± 1.7 | 0.18 (≈ 0.502 µM) | 0.5 | 0.18 (≈ 0.502 µM) | 0.5 |  |  |  |  | 2.4 | 3 | 140 ± 1 |  |  |  |  |  |  |  | MIC MRSA +FCS (MRSA (S.aureus 13709); 10% fetal calf serum): 1.4 µg/mL (≈ 3.91 µM); MIC (MRSA (S.aureus 13709); [10]): 4 µM; MIC S. pyogenes +FCS (Streptococcus pyogenes; 10% FCS): 0.72 µg/mL (≈ 2.01 µM); MIC (Streptococcus pyogenes; [11]): 2 µM; IC50 (MCF-10 cells; cytotoxicity, 4 h incubation): 199000 nM
6 | COc1ccc(-c2ccccc2)cc1C(C)C#Cc1c(C)nc(N)nc1N (stereo not drawn) [Compound 10] | 75 ± 4 |  |  |  |  |  | 2 | 0.72 | 0.5 | 0.18 |  | 4 | 97 ± 10 | 19 | 76 | 38000 | 11.4 | 32 | 5.7 | 16 | Selectivity (h/Sa) (S. aureus DHFR): 1.3; IC50 (HepG2 cells): 94000 nM
7 | CCc1nc(N)nc(N)c1C#CC(C)c1cc(-c2ccccc2)ccc1OC (stereo not drawn) [Compound 11] | 67 ± 5.5 |  |  |  |  |  | 2 | 0.74 | 2 | 0.74 | 1.5 | 4 | 100 ± 10 | 27 | 27 | 54000 | 11.9 | 32 | 6 | 16 | IC50 (HepG2 cells): 77000 nM
8 | COc1cc(C(C)C#Cc2c(C)nc(N)nc2N)cc(N2CCOCC2)c1 (stereo not drawn) [Compound 31] | 29 ± 2 |  |  |  |  |  | 4 | 1.5 | 8 | 2.94 | 14 | 15 | 400 ± 40 | 116 | 58 | 462000 | 2.94 | 8 | 2.94 | 8 | IC50 (HepG2 cells): 494000 nM
9 | CCc1nc(N)nc(N)c1C#CCc1cccc(-c2cncnc2)c1 [Compound 37] |  |  |  |  |  |  | 0.5 | 0.16 | 0.5 | 0.16 | 5 | 7 |  | >1,000 | >1,000 | > 500000 | 0.16 | 0.5 | 0.16 | 0.5 | IC50 (S. aureus DHFR): 35 ± 1.1 nM; IC50 (Human DHFR): 160 ± 13 nM

Reference: PMC3274548, “Toward New Therapeutics for Skin and Soft Tissue Infections: Propargyl-Linked Antifolates Are Potent Inhibitors of MRSA and Streptococcus pyogenes” (PLoS ONE, 2012)
